Test results as given in US11007169B2, “Cis-gnetin H and trans-gnetin H as therapeutic agents” (MIDDLE TENNESSEE STATE UNIVERSITY, priority 2014, dated 2021).

What was measured:
[1] = Conversion testing under 12-watt fluorescent lamp, HPLC; format: physicochemical; settings: 6-hour treatment; for concentration of the compound after illumination: HPLC
Procedure: For stability testing, cis- and trans-gnetin H were dissolved with methanol to a concentration of 1 mg/ml. The stock solutions were sealed in a glass bottle and kept in the dark at room temperature for 6 months and then the purity of the two compounds was tested using the HPLC method previously described (He et al., J. Liq. Chromatog. Rel. Technol. 2013; 36:1708-1724). For conversion testing, cis- and trans-gnetin H were individually illuminated with a 12-watt fluorescent lamp for 2, 4 and 6 hours, and the compounds were identified using HPLC.

A549 cells = assay: Apoptosis assay by flow cytometry, A549; format: cell-based, human; settings: 100 μM, 24 hours
Procedure: A549 and BT20 cells were seeded in a 96-well plate (BD Falcon) at a density of 8000 cells/well, and treated with cis- or trans-gnetin H for 24 hours. Apoptosis was assessed using Annexin V/7-AAD double staining as described (Bai et al., Cancer Sci. 2010; 101(2):488-493). Cells were analyzed on a Guava Flow Cytometer (Millipore) using InCyte software and the data was exported to FlowJo software for image display.

[2] = system: A549 lung cancer xenografts; assay: Xenograft studies, A549 lung tumors in nude mice; format: in vivo; settings: 2.4 mg/kg
Procedure: 14 male nude mice (6 weeks old) were injected subcutaneously on both flanks with 2×10^6 A549 cells. […] Tumor sizes were measured 3 times per week, and volumes were calculated using the formula [length (mm)]×[width (mm)]^2/2 (Warburton et al., Clin. Cancer Res. 2004; 10(7): 2512-2524).

[3] = system: malignant cells (A549, BT20, MCF-7, U2OS); assay: IC50 determination, panel of malignant cell lines; format: cell-based, human
Procedure: The cancer cell lines used in this study included human lung carcinoma (A549), human breast carcinoma (BT20 and MCF-7) and human osteosarcoma (U2OS), with the normal cell lines human peripheral lung epithelial cells (HPL1A) and human mammary epithelial cells (HMEC) serving as controls. A549, BT20, MCF-7, U2OS and HMEC cells were purchased from American Type Culture Collection (ATCC, USA), and HPL1A cells were obtained from Nagoya University, Japan. A549 and BT20 were grown in RPMI-1640 (Sigma), MCF-7 was grown in Dulbecco's Modified Eagle Medium (DMEM) (Sigma) supplemented with 0.01 mg/ml human recombinant insulin (Sigma), U2OS and HMEC were grown in McCoy's 5A (ATCC), and HPL1A was grown in DMEM/F-12K (Sigma). The mediums were supplemented with 10% Fetal Bovine Serum (FBS) (Gibco), 1% penicillin and streptomycin and incubated in a humidified atmosphere with 5% CO2 at 37° C.
The proliferation inhibition potential of cis- and trans-gnetin H was determined by a fluorescence dye staining method. Cells were seeded in a 96-well tissue culture-treated plate (BD Falcon) at a density of 4000 cells/well, and treated with cis- or trans-gnetin H for 48 hours. AlamarBlue dye (Invitrogen) was used to assess the viability of cells according to the manufacturer's instructions; the fluorescent intensity was read on a SpectraMax M2e microplate reader (Molecular Devices Inc.). […]

[4] = system: HL-60 (human leukemia) cells; settings: Kang et al. 2003, cited from earlier work
[5] = system: L1210 (mouse leukemia) cells; settings: Ha et al. 2009; cited from earlier work

SMILES	concentration of the compound after illumination [1] [%]	apoptosis induction in A549 (A549 cells)	less increase in size of large tumors compared to the untreated control ([2]; large tumors) [%]	food intake or body weight of treated animals ([2]; nude mice)	less increase in size of small tumors compared to the untreated control ([2]; small tumors) [%]	more antiproliferation activity than previously reported ([3]; A549, BT20, MCF-7 and U2OS versus literature)	IC50 ([3]; Homo sapiens, 48 h, bone, breast and lung cancer cell lines, 48 hours, read-out: IC50 values in malignant cells (range over cell lines)) [µM]	portion converted to its cis-isomer [1]	increase of the sub-G1 population ([4]; HL-60 cells, 25 μM) [%]	IC50 ([4]; read-out: IC50, viability of HL-60 cells) [µM]	IC50 [5] [µM]
Oc1ccc(/C=C\c2c3c(cc4c2[C@H](c2cc(O)cc(O)c2)[C@@H](c2ccc(O)cc2)O4)O[C@H](c2ccc(O)cc2)[C@H]3c2cc(O)cc(O)c2)cc1 [cis-gnetin H]	88.9	induce apoptosis	68	no apparent alteration on food intake or body weight	39						
Oc1ccc(/C=C/c2c3c(cc4c2[C@H](c2cc(O)cc(O)c2)[C@@H](c2ccc(O)cc2)O4)O[C@H](c2ccc(O)cc2)[C@H]3c2cc(O)cc(O)c2)cc1 [trans-gnetin H]	6.2	induce apoptosis				2-9 fold	1.35 to 10	about 86%	11	25	40.1
